Holding throughout (test): Bliss excess, mean over the matrix (fraction); higher = more synergy
Test [1] concerns KMRC-1 (Kidney Carcinoma). A digest of the protocol:
(§1)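 Cell lines grown in DMEM/F12 or RPMI with 10% FBS were plated in 1536-well plates and held 24 hours at 37°C, 5% CO2 before 72 hours of exposure to two-drug dose matrices, with DMSO typically at 0.2%. CellTiter-Glo 2.0 luminescence gave viability, which was converted to inhibition. Vehicle wells were set to 0 and blank wells to 1. Combination Emax is the second-highest inhibition in the matrix, and Bliss excess is the observed combination effect minus the expected EA + EB − EA·EB, where EA and EB are the single-agent effects.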

The test system of test [2] is NCI-H1355 (Lung Adenocarcinoma). A digest of the protocol:
as §1

Test [3] deals with EFO-21 (Ovarian Carcinoma). The procedure, abridged:
as §1

The subject of test [4] is HCC1500 (Breast Carcinoma). A digest of the protocol: as §1
The subject of test [5] is COLO-668 (Small Cell Lung Carcinoma). The procedure, abridged: as §1
The test system of test [6] is ALL-SIL (T-Lymphoblastic Leukemia). The procedure, abridged:
as §1

The test system of test [7] is SW982 (Other Solid Carcinomas). A digest of the protocol:
as §1

The test system of test [8] is NCI-H522 (Lung Adenocarcinoma). A digest of the protocol:
as §1

Test [9] deals with MOG-G-UVW (Low Grade Glioma). The procedure, abridged:
as §1

In test [10] the test system is Mo-T (Other Blood Carcinomas). A digest of the protocol:
as §1

Test [11] relates to KGN (Other Solid Carcinomas). A digest of the protocol:
as §1

Test [12] deals with OACM5-1 (Esophageal Adenocarcinoma). A digest of the protocol:
as §1

The test system of test [13] is CADO-ES1 (Ewing's Sarcoma). A digest of the protocol: as §1
In test [14] the test system is HCC2998 (Colorectal Carcinoma). The procedure, abridged: as §1
For test [15], the system named is LC-1-sq (Squamous Cell Lung Carcinoma). A digest of the protocol:
as §1

Test [16] concerns NCI-H1092 (Small Cell Lung Carcinoma). A digest of the protocol: as §1
The subject of test [17] is SKN (Other Solid Carcinomas). A digest of the protocol: as §1
Test [18] deals with ME-180 (Cervical Carcinoma). A digest of the protocol: as §1
For test [19], the system named is DU-145 (Prostate Carcinoma). A digest of the protocol: as §1

Take `COc1cccc2c1C(=O)c1c(O)c3c(c(O)c1C2=O)C[C@@](O)(C(=O)CO)C[C@@H]3O[C@H]1C[C@H](N)[C@H](O)[C@H](C)O1` [Doxorubicin] + Cc1cc2ncnn2cc1Nc1ncc2c(n1)n(C1CCOCC1)c(=O)n2C [AZD7648] (first compound max 1 µM, 7x7, partner max 10 µM): the Bliss excess is 0.0835 in test [1]; 0.0337 in test [2]; -0.03 in test [3]; 0.0605 in test [4]; 0.0633 in [5]; 0.0857 in test [6]. The Bliss excess in test [7] was 0.0226; in test [8], 0.0072; in test [9] it was 0.101; in test [10], 0.0096; in [11], 0.0694; in test [12] it was 0.0577. The Bliss excess in [13] was 0.111; in test [14] it was 0.0344; in test [15], 0.117; in test [16], -0.0037; in test [17] it was 0.0231; in [18], 0.0438. Moreover, in [19], the Bliss excess came out at 0.0052.
Consider `COc1cccc(OCCCN)c1-c1cc(Nc2cnc(C#N)cn2)n[nH]1` [Prexasertib] + C=CCn1c(=O)c2cnc(Nc3ccc(N4CCN(C)CC4)cc3)nc2n1-c1cccc(C(C)(C)O)n1 [AZD1775] (first compound max 1 µM, partner max 1 µM), for which the Bliss excess was 0.0366 in test [1]; -0.0039 in [2]; -0.0075 in test [3]; 0.146 in test [4]; 0.0952 in test [5]; 0.0648 in test [6]. For the same molecule, the Bliss excess was -0.0341 in test [7]; 0.143 in [8]; 0.0656 in [9]; 0.0023 in [10]; 0.0615 in test [11]; 0.105 in test [12]. Besides, the Bliss excess in [13] came out at 0.0737; in test [14], 0.0716; in test [15], 0.0581; in test [16] it was 0.031; in [17] it was 0.0515; in test [18], 0.0017. In test [19], the Bliss excess came out at 0.0361.
Regarding `COc1cccc(OCCCN)c1-c1cc(Nc2cnc(C#N)cn2)n[nH]1` [Prexasertib] + CCc1c2c(nc3ccc(O)cc13)-c1cc3c(c(=O)n1C2)COC(=O)[C@]3(O)CC [SN-38] (first compound max 1 µM, 7x7, partner max 0.3 µM), the Bliss excess is -0.0247 in test [1]; 0.0231 in test [2]; -0.0714 in test [3]; -0.0269 in test [4]; -0.0788 in test [5]; -0.0093 in test [6]. For the same molecule, the Bliss excess in test [7] was -0.0952; in [8], 0.163; in test [9], 0.0045; in [10], -0.0465; in test [11], -0.116; in test [12] it was -0.0675. Also, the Bliss excess in [13] came out at 0.0033; in test [14], 0.0876; in [15] it was 0.0039; in test [16], 0.0354; in test [17], 0.0807; in [18], 0.0232. In [19], the Bliss excess is -0.0423.
On to `COc1cccc(OCCCN)c1-c1cc(Nc2cnc(C#N)cn2)n[nH]1` [Prexasertib] + CN(C)CCCOc1ccc(-c2ccc3ncc4c(c3c2)n(C2CCOCC2)c(=O)n4C)cn1 [AZD0156] (first compound max 1 µM, 7x7, partner max 1 µM), for which the Bliss excess was -0.0317 in test [1]; -0.0429 in [2]; -0.0684 in test [3]; 0.0475 in [4]; -0.0161 in test [5]; -0.0838 in [6]. Further, the Bliss excess in test [7] is -0.0813; in [8], -0.0189; in [9] it was -0.0204; in test [10] it was 0.0105; in [11], -0.0432; in [12], -0.0235. Further, the Bliss excess in test [13] was 0.0008; in [14], -0.0121; in test [15] it was -0.0038; in [16], -0.0561; in test [17] it was 0.0519; in test [18], -0.0255. For the same molecule, the Bliss excess in [19] was -0.0405.
`COc1cccc(OCCCN)c1-c1cc(Nc2cnc(C#N)cn2)n[nH]1` [Prexasertib] + C[C@@H]1COCCN1C2=NC(=NC(=C2)C3(CC3)[S@](=N)(=O)C)C4=C5C=CNC5=NC=C4 [AZD6738] (first compound max 1 µM, 7x7, partner max 10 µM): the Bliss excess in test [1] was 0.0101; in test [2], 0.0276; in test [3], -0.02; in test [4], 0.0568; in [5], 0.0269; in test [6], -0.0175. Further, the Bliss excess in [7] was -0.0406; in test [8], 0.0392; in [9], 0.0317; in [10], -0.0463; in [11], -0.0399; in [12], -0.0153. Moreover, the Bliss excess in test [13] was -0.0348; in [14], 0.0211; in [15], -0.0361; in [16] it was -0.0568; in test [17] it was -0.02; in test [18], 0.0255. Further, in test [19], the Bliss excess is -0.0844.
Turning to `COc1cccc(OCCCN)c1-c1cc(Nc2cnc(C#N)cn2)n[nH]1` [Prexasertib] + Cc1cc2ncnn2cc1Nc1ncc2c(n1)n(C1CCOCC1)c(=O)n2C [AZD7648] (first compound max 1 µM, 7x7, partner max 10 µM), the Bliss excess in [1] was -0.0152; in [2], -0.0405; in test [3] it was -0.0446; in test [4], 0.0354; in [5] it was -0.0459; in [6], -0.0258. For the same molecule, the Bliss excess was -0.0355 in [7]; -0.0005 in [8]; -0.0264 in test [9]; 0.0159 in test [10]; -0.0033 in test [11]; -0.026 in [12]. Moreover, the Bliss excess was -0.0261 in [13]; -0.0053 in test [14]; 0.0099 in test [15]; -0.0287 in test [16]; -0.0238 in [17]; 0.0041 in test [18]. Moreover, the Bliss excess in [19] was -0.0381.
Regarding `COc1cccc(OCCCN)c1-c1cc(Nc2cnc(C#N)cn2)n[nH]1` [Prexasertib] + O=C(c1cc(Cc2n[nH]c(=O)c3ccccc23)ccc1F)N1CCN(C(=O)C2CC2)CC1 [Olaparib] (first compound max 1 µM, 7x7, partner max 10 µM), the Bliss excess in test [1] was -0.0411; in [2] it was -0.0448; in test [3], -0.1; in [4], -0.004; in test [5] it was -0.0759; in test [6] it was -0.0222. The Bliss excess was -0.103 in test [7]; -0.0491 in test [8]; -0.0035 in test [9]; 0.0066 in test [10]; -0.031 in test [11]; -0.054 in test [12]. Further, the Bliss excess in test [13] is -0.0315; in test [14], -0.0432; in test [15], -0.0468; in [16], -0.0514; in [17], -0.0209; in [18], -0.0511. The Bliss excess in test [19] is -0.0144.

The values above are taken from the supplement of paper PMC11061612.
